The record followed here is patent US11472803B2, “7-substituted 1-aryl-naphthyridine-3-carboxylic acid amides and use thereof” (Bayer Aktiengesellschaft, priority 2016, dated 2022).

The target of the assay is T1, human M2 receptor (Homo sapiens, UniProt P08172).
T1 construct: expressed in transfected cells; host or cells: CHO-DUKX (CHO-DUKX-M2-GIRK)
T1 sequence (P08172 1-466): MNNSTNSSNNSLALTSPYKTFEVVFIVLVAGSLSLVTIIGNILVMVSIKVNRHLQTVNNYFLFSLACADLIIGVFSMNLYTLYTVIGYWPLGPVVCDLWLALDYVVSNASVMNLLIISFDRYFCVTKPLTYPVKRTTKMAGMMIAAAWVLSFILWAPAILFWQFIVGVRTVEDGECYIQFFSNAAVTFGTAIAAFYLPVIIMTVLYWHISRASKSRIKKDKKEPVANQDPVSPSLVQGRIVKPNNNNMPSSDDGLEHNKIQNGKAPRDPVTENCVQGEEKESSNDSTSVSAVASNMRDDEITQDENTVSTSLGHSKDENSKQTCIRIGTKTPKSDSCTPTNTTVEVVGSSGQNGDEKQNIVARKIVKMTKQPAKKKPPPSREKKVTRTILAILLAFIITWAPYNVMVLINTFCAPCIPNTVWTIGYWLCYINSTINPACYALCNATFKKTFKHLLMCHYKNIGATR
The assay is described as follows: Functional M2-GIRK1/4 activation test: allosteric potency (EC50) and efficiency at EC20 acetylcholine. It is filed as cell-based. As to conditions: CHO-DUKX-M2-GIRK cells; for EC50: voltage-sensitive dye, acetylcholine at EC20, in some cases mean of two or more determinations; for Emax: boosting of the acetylcholine effect at EC20 acetylcholine concentration. The method, boiled down:
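CHO-DUKX cells stably expressing human M2 and GIRK1/4; membrane potential tracked with voltage-sensitive dye at room temperature. Compound added 50 s before acetylcholine at its EC20, then hyperpolarization read 60 s. EC50 (allosteric potency) and efficiency (boost of EC20 ACh effect) from 4-parameter Hill fit.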

For `CN(C)c1nc2c(cc1F)c(=O)c(C(=O)NC(C(F)(F)F)C(F)(F)F)cn2-c1c(F)cc(F)cc1Cl` [Example 180, 1-(2-Chloro-4,6-difluorophenyl)-7-(dimethylamino)-6-fluoro-N-(1,1,1,3,3,3-hexafluoropropan-2-yl)-4-oxo-1,4-dihydro-1,8-naphthyridine-3-carboxamide], it took 8.5 nM to reach a half-maximal effect (EC50) and the Emax worked out at 86%.
In the same order, the values of `CC(NC(=O)c1cn(-c2c(F)cc(F)cc2F)c2nc(N3CCC(O)C(O)C3)c(F)cc2c1=O)C(F)(F)C(F)(F)F` (centres unmarked) [Example 181, 7-(3,4-Dihydroxypiperidin-1-yl)-6-fluoro-4-oxo-N-(3,3,4,4,4-pentafluorobutan-2-yl)-1-(2,4,6-trifluorophenyl)-1,4-dihydro-1,8-naphthyridine-3-carboxamide] are 13 nM and 83%.
In turn, `O=C(NC(C(F)(F)F)C(F)(F)F)c1cn(-c2c(F)cc(F)cc2F)c2nc(N3CCCC[C@@H]3CO)c(F)cc2c1=O` [Example 188, 6-Fluoro-N-(1,1,1,3,3,3-hexafluoropropan-2-yl)-7-[(2R)-2-(hydroxymethyl)piperidin-1-yl]-4-oxo-1-(2,4,6-trifluorophenyl)-1,4-dihydro-1,8-naphthyridine-3-carboxamide] had an EC50 of 26 nM and an Emax of 97%.
On the same counts, the results for `O=C(NC(C(F)(F)F)C(F)(F)F)c1cn(-c2c(F)cc(F)cc2F)c2nc(N3CCC(O)(CO)CC3)c(F)cc2c1=O` [Example 189, 6-Fluoro-N-(1,1,1,3,3,3-hexafluoropropan-2-yl)-7-[4-hydroxy-4-(hydroxymethyl)piperidin-1-yl]-4-oxo-1-(2,4,6-trifluorophenyl)-1,4-dihydro-1,8-naphthyridine-3-carboxamide] are 30 nM and 100%.
On the same counts, the results for `O=C(NC(C(F)(F)F)C(F)(F)F)c1cn(-c2ncc(F)cc2F)c2nc(N3CCCC[C@@H]3CO)c(F)cc2c1=O` [Example 190, 1-(3,5-Difluoropyridin-2-yl)-6-fluoro-N-(1,1,1,3,3,3-hexafluoropropan-2-yl)-7-[(2R)-2-(hydroxymethyl)piperidin-1-yl]-4-oxo-1,4-dihydro-1,8-naphthyridine-3-carboxamide] are 83.5 nM and 100%.
In the same order, the values of `O=C(NC(C(F)(F)F)C(F)(F)F)c1cn(-c2c(F)cc(F)cc2F)c2nc(N3CCC(CO)(CO)CC3)c(F)cc2c1=O` [Example 191, 7-[4,4-bis(hydroxymethyl)piperidin-1-yl]-6-fluoro-N-(1,1,1,3,3,3-hexafluoropropan-2-yl)-4-oxo-1-(2,4,6-trifluorophenyl)-1,4-dihydro-1,8-naphthyridine-3-carboxamide] are 48 nM and 100%.
In turn, `CC(NC(=O)c1cn(-c2c(F)cc(F)cc2F)c2nc(N3CCCC(O)(CO)C3)c(F)cc2c1=O)C(F)(F)C(F)(F)F` (centres unmarked) [Example 192, 6-Fluoro-7-[3-hydroxy-3-(hydroxymethyl)piperidin-1-yl]-4-oxo-N-[3,3,4,4,4-pentafluorobutan-2-yl]-1-(2,4,6-trifluorophenyl)-1,4-dihydro-1,8-naphthyridine-3-carboxamide] displayed an EC50 of 128 nM and an Emax of 100%.
In the same order, the values of `CC(C)(NC(=O)c1cn(-c2c(F)cc(F)cc2F)c2nc(N3CC[C@H](O)[C@@H]3CO)c(F)cc2c1=O)C(F)(F)C(F)(F)F` [Example 193, 6-Fluoro-7-[(2S,3S)-3-hydroxy-2-(hydroxymethyl)pyrrolidin-1-yl]-4-oxo-N-(3,3,4,4,4-pentafluoro-2-methylbutan-2-yl)-1-(2,4,6-trifluorophenyl)-1,4-dihydro-1,8-naphthyridine-3-carboxamide] are 32.5 nM and 100%.
For the molecule `O=C(NC(C(F)(F)F)C(F)(F)F)c1cn(-c2ncc(F)cc2F)c2nc(N3CCC(CO)(CO)CC3)c(F)cc2c1=O` [Example 195, 7-[4,4-bis(hydroxymethyl)piperidin-1-yl]-1-(3,5-difluoropyridin-2-yl)-6-fluoro-N-(1,1,1,3,3,3-hexafluoropropan-2-yl)-4-oxo-1,4-dihydro-1,8-naphthyridine-3-carboxamide], a half-maximal effect (EC50) was put at 58 nM and the Emax turned out to be 100%.
For `O=C(NC(C(F)(F)F)C(F)(F)F)c1cn(-c2c(F)cc(F)cc2F)c2nc(N3CC4(COC4)C3)c(F)cc2c1=O` [Example 196, 6-Fluoro-N-(1,1,1,3,3,3-hexafluoropropan-2-yl)-7-(2-oxa-6-azaspiro[3.3]hept-6-yl)-4-oxo-1-(2,4,6-trifluorophenyl)-1,4-dihydro-1,8-naphthyridine-3-carboxamide], a half-maximal response (EC50) required 63 nM and the Emax was 100%.
The molecule `O=C(NC(C(F)(F)F)C(F)(F)F)c1cn(-c2ncc(F)cc2F)c2nc(N3CCC[C@@H]3CO)c(F)cc2c1=O` [Example 197, 1-(3,5-Difluoropyridin-2-yl)-6-fluoro-N-(1,1,1,3,3,3-hexafluoropropan-2-yl)-7-[(2R)-2-(hydroxymethyl)pyrrolidin-1-yl]-4-oxo-1,4-dihydro-1,8-naphthyridine-3-carboxamide] returned an EC50 of 51 nM and an Emax of 100%.
In the same order, the values of `O=C(NC(C(F)(F)F)C(F)(F)F)c1cn(-c2ncc(F)cc2F)c2nc(N3CCC(O)(CO)CC3)c(F)cc2c1=O` [Example 198, 1-(3,5-Difluoropyridin-2-yl)-6-fluoro-N-(1,1,1,3,3,3-hexafluoropropan-2-yl)-7-[4-hydroxy-4-(hydroxymethyl)piperidin-1-yl]-4-oxo-1,4-dihydro-1,8-naphthyridine-3-carboxamide] are 33 nM and 100%.
In the same order, the values of `O=C(NC(C(F)(F)F)C(F)(F)F)c1cn(-c2c(F)cc(F)cc2F)c2nc(N3CCC[C@@H]3CO)c(F)cc2c1=O` [Example 199, 6-Fluoro-N-(1,1,1,3,3,3-hexafluoropropan-2-yl)-7-[(2R)-2-(hydroxymethyl)pyrrolidin-1-yl]-4-oxo-1-(2,4,6-trifluorophenyl)-1,4-dihydro-1,8-naphthyridine-3-carboxamide] are 14 nM and 100%.
On the same counts, the results for `CC(NC(=O)c1cn(-c2c(F)cc(F)cc2F)c2nc(N3CCNCC(O)C3)c(F)cc2c1=O)C(F)(F)C(F)(F)F` (centres unmarked) [Example 200, 6-Fluoro-7-[6-hydroxy-1,4-diazepan-1-yl]-4-oxo-N-[3,3,4,4,4-pentafluorobutan-2-yl]-1-(2,4,6-trifluorophenyl)-1,4-dihydro-1,8-naphthyridine-3-carboxamide] are 120 nM and 73%.
Regarding `C[C@@H](NC(=O)c1cn(-c2c(F)cc(F)cc2F)c2nc(N3C[C@@H](O)[C@H](O)C3)c(F)cc2c1=O)C(F)(F)F` [Example 219, 7-[(3R,4R)-3,4-dihydroxypyrrolidin-1-yl]-6-fluoro-4-oxo-1-(2,4,6-trifluorophenyl)-N-[(2R)-1,1,1-trifluoropropan-2-yl]-1,4-dihydro-1,8-naphthyridine-3-carboxamide], the half-maximal effective concentration (EC50) was 16.5 nM and the Emax turned out to be 91%.
In turn, `O=C(NCC(F)(F)F)c1cn(-c2c(F)cc(F)cc2F)c2nc(N3C[C@@H](O)[C@H](O)C3)c(F)cc2c1=O` [Example 220, 7-[(3R,4R)-3,4-dihydroxypyrrolidin-1-yl]-6-fluoro-4-oxo-N-(2,2,2-trifluoroethyl)-1-(2,4,6-trifluorophenyl)-1,4-dihydro-1,8-naphthyridine-3-carboxamide] showed a 50% effective concentration (EC50) of 80 nM and an Emax of 85%.
In the same order, the values of `O=C(NCC(F)(F)F)c1cn(-c2c(F)cc(F)cc2Cl)c2nc(N3C[C@@H](O)[C@H](O)C3)c(F)cc2c1=O` [Example 221, 1-(2-Chloro-4,6-difluorophenyl)-7-[(3R,4R)-3,4-dihydroxypyrrolidin-1-yl]-6-fluoro-4-oxo-N-(2,2,2-trifluoroethyl)-1,4-dihydro-1,8-naphthyridine-3-carboxamide] are 31 nM and 85%.
`C[C@H](NC(=O)c1cn(-c2c(F)cc(F)cc2Cl)c2nc(N3C[C@@H](O)[C@H](O)C3)c(F)cc2c1=O)C(F)(F)F` [Example 224, 1-(2-Chloro-4,6-difluorophenyl)-7-[(3R,4R)-3,4-dihydroxypyrrolidin-1-yl]-6-fluoro-4-oxo-N-[(2S)-1,1,1-trifluoropropan-2-yl]-1,4-dihydro-1,8-naphthyridine-3-carboxamide]: the half-maximal effective concentration (EC50) stood at 10 nM and the Emax was found to be 96%.
On the same counts, the results for `C[C@@H](NC(=O)c1cn(-c2c(F)cc(F)cc2Cl)c2nc(N3C[C@@H](O)[C@H](O)C3)c(F)cc2c1=O)C(F)(F)F` [Example 227, 1-(2-Chloro-4,6-difluorophenyl)-7-[(3R,4R)-3,4-dihydroxypyrrolidin-1-yl]-6-fluoro-4-oxo-N-[(2R)-1,1,1-trifluoropropan-2-yl]-1,4-dihydro-1,8-naphthyridine-3-carboxamide] are 11 nM and 94%.

In general, EC50 refers to the concentration needed to bring the measured effect to its halfway point. The term Emax denotes the maximal effect, on the per cent scale that the assay sets.
